Patent US6534522B2, “Subtype-selective NMDA receptor ligands and the use thereof” (Warner-Lambert Company, priority 1995, dated 2003)
Where a name gives a salt, the structure may show the parent alone.

Legend:
[1] = biological target: NR1A/2A NMDA receptor (Rattus norvegicus, UniProt P35439+Q00959); test: Xenopus oocyte expression system, two-electrode voltage clamp, NR1A/2A; type: cell-based; conditions: cloned NR1A/2A subunits expressed in Xenopus oocytes; inhibition of agonist-evoked membrane current; read-out: 1A/2A IC50
Sequence of NR1A/2A NMDA receptor (Q00959 20-1464 limits assumed, other chains not shown): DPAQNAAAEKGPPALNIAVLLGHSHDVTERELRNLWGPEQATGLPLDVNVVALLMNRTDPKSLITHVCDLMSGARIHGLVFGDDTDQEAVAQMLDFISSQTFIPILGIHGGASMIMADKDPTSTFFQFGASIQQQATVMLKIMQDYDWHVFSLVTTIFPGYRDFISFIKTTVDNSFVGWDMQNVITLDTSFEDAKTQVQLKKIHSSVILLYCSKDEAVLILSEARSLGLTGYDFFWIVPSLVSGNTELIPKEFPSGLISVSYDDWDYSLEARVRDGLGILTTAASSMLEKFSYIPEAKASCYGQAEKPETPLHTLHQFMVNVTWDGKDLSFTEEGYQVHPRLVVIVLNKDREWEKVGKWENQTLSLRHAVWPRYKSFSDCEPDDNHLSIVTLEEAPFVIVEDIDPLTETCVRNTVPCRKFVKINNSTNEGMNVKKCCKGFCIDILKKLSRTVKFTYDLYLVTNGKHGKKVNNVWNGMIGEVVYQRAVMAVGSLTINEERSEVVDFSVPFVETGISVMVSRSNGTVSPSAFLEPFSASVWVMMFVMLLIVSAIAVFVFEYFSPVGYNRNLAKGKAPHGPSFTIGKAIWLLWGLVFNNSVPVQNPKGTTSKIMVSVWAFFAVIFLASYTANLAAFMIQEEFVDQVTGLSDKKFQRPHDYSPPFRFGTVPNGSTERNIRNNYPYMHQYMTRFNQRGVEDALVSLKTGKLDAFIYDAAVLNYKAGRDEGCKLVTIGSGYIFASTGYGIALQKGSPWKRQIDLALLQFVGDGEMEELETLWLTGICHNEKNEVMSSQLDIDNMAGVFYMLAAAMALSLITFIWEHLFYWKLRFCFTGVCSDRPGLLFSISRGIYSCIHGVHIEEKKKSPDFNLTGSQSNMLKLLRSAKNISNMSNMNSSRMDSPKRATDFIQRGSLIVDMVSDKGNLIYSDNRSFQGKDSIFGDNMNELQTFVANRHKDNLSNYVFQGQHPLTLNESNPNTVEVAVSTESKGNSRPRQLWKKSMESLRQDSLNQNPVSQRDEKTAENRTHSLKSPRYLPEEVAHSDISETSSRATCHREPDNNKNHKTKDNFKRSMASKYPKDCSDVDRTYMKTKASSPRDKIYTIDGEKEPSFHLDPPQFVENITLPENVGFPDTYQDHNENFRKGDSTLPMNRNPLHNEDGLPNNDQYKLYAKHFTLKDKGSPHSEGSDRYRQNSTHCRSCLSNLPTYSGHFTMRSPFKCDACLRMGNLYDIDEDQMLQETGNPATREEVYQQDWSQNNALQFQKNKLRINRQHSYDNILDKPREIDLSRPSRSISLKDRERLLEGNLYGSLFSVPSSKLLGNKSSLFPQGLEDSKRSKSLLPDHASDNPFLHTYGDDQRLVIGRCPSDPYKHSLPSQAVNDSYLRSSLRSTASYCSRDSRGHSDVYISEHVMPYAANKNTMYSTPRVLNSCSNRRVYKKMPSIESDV
From the text: (§1) Electrophysiological assays may be utilized to characterize the actions of potential subtype-selective ligands at NMDA receptors expressed in Xenopus oocytes. The ligand may be assayed at the different subunit combinations of cloned rat NMDA receptors corresponding to the four putative NMDA receptor subtypes (Moriyoshi et al., Nature (Lond.) 354:31-37 (1991); Monyer et al., Science (Washington, D.C.) 256:1217-1221 (1992); Kutsuwada et al., Nature (Lond.) 358:36-41 (1992); Sugihara et al., Biochem. Biophys. Res. Comm. 185:826-832 (1992)).
(§2) Using fixed saturating concentrations of agonists (glutamate 100 μM, glycine 1-10 μM depending on subunit combination), the inhibitory potency of a putative subtype-selective ligand may be assayed at the NMDA receptors assembled from NR1A/2A, NR1A/2B, NR1A/2C and NR1A/2D subunit combinations.
(§3) The Xenopus oocyte expression system. Mature female Xenopus laevis were anaesthetized (20-40 min) using 0.15% 3-aminobenzoic acid ethyl ester (MS-222) and 2-4 ovarian lobes were surgically removed. Oocytes at developmental stages IV-VI (Dumont, J. N., J. Morphol. 136:153-180 (1972)), were dissected from the ovary still surrounded by enveloping ovarian tissues. Follicle-enclosed oocytes were micro-injected with 1:1 mixtures of cRNA:NR1A+NR2A, 2B, 2C or 2D; injecting ˜2, 5, or 20 ng of RNA encoding each receptor subunit. NR1A encoding cRNA was injected alone at ˜20 ng. Oocytes were stored in Barth's medium containing (in mM): NaCl, 88; KCl, 1; CaCl2, 0.41; Ca(NO3)2, 0.33; MgSO4, 0.82; NaHCO3, 2.4; HEPES 5; pH 7.4, with 0.1 mg/mL gentamycin sulphate. While oocytes were still surrounded by enveloping ovarian tissues the Barth's medium was supplemented with 0.1% bovine serum. Oocytes were defolliculated 1-2 days following injections by treatment with collagenase (0.5 mg/mL Sigma Type I for 0.5-1 hr) (Miledi and Woodward, J. Physiol. (Lond.) 416:601-621 (1989)) and subsequently stored in serum-free medium.
(§4) Electrical recordings were made using a conventional two-electrode voltage clamp (Dagan TEV-200) over periods ranging between 3-21 days following injection. Oocytes were placed in a 0.1 mL recording chamber continuously perfused (5-15 mL min^−1) with frog Ringer's solution containing (in mM): NaCl, 115; KCl, 2; CaCl2, 1.8; HEPES, 5; pH 7.4. Drugs were applied by bath perfusion. When using the more rapid flow rates, half-times for mid-chamber solution changes were between 2-3 sec, however, exchange rates for drug solutions at the oocyte surface (i.e. beneath the vitelline envelope and among the tangles of microvilli) were probably considerably longer (Woodward et al., Mol. Pharmacol. 41:89-103 (1992)). Zero-Ca^2+/Ba^2+ Ringer had the composition (in mM): NaCl, 115; KCl, 2; BaCl2, 1.8; HEPES, 5; pH 7.4. Intraoocyte injections were made by pneumatic pressure-pulse ejection from micropipettes (Miledi and Parker, J. Physiol. (Lond.) 357:173-183 (1984)). Injection solutions of EGTA (40-400 mM) and BAPTA (50-500 mM) were made up in H2O, pH adjusted to 7.4 with KOH or HCl, and filtered to minimize plugging (Acrodisc-13, […]). Pressure was set between 200-400 kPa. The volume of injections was regulated by adjusting the time of pulses (0.1-1 sec) and was estimated by measuring the diameters of ejected droplets.
(§5) Concentration-inhibition curves were fit with equation 2.
(§6) I/Icontrol=1/(1+([antagonist]/10^−pIC50)^n) Eq. 2
(§7) in which Icontrol is the current evoked by agonists alone, pIC50=−log IC50, […] is the concentration of antagonist that produces half maximal inhibition, and n is the slope factor. For incomplete curves analysis by fitting was unreliable and IC50 values were calculated by simple regression over linear portions of the curves (Origin: Microcal Software).
(§8) Drugs were initially dissolved at concentrations of 10-100 mM in DMSO. Dilutions were then made to generate a series of DMSO stock solutions over the range 10 μM to 100 mM. Working solutions were made by 1000-3000 fold dilution of stocks into Ringer. […]

[2] = biological target: NR1A/2B NMDA receptor (Rattus norvegicus, UniProt P35439+Q00960); test: Xenopus oocyte expression system, two-electrode voltage clamp, NR1A/2B; type: cell-based; conditions: cloned NR1A/2B subunits expressed in Xenopus oocytes; inhibition of agonist-evoked membrane current; read-out: 1A/2B IC50
Sequence of NR1A/2B NMDA receptor (Q00960 27-1482, other chains not shown): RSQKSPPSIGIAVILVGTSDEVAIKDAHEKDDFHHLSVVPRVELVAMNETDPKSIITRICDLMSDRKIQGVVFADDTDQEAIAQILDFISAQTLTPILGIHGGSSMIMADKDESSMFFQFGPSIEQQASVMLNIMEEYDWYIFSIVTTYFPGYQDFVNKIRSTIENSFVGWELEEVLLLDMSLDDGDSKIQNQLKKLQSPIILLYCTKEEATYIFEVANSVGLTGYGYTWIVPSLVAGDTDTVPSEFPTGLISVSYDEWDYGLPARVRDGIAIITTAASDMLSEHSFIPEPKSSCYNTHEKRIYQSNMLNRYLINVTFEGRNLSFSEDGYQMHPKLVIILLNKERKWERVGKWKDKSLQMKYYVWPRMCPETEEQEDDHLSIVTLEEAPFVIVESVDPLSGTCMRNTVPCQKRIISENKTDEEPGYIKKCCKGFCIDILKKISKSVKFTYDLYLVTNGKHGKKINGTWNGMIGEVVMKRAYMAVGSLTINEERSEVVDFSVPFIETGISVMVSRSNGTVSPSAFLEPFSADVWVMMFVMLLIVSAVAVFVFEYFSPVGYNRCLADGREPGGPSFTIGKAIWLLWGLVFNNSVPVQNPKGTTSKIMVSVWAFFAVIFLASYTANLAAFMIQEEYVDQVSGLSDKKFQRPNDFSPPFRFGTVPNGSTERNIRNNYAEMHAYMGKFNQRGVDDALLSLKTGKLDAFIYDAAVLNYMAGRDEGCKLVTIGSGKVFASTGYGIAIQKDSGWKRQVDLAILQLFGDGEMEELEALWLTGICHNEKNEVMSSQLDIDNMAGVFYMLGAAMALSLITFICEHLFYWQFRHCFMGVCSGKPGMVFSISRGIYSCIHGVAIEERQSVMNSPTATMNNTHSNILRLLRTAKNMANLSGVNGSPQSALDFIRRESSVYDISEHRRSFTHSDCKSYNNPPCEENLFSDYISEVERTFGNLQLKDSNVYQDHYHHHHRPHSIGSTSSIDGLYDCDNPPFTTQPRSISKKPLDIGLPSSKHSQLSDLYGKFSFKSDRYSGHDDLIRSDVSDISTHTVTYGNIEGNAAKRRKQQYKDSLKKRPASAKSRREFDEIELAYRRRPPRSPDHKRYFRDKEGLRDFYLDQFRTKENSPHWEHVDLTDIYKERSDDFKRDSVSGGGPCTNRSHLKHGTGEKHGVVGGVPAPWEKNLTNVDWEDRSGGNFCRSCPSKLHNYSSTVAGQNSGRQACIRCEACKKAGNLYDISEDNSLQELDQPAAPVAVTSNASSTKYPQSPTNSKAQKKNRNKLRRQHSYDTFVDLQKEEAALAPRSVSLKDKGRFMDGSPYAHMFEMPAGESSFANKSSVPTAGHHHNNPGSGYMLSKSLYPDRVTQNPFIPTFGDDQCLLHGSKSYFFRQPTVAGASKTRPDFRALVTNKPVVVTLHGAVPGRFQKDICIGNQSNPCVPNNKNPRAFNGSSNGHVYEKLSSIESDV
From the text: as §1, §2, §3, §4, §5, §6, §7, §8

[3] = biological target: NR1A/2C NMDA receptor (Rattus norvegicus, UniProt P35439+Q00961); test: Xenopus oocyte expression system, two-electrode voltage clamp, NR1A/2C; type: cell-based; conditions: cloned NR1A/2C subunits expressed in Xenopus oocytes; inhibition of agonist-evoked membrane current; read-out: 1A/2C IC50
Sequence of NR1A/2C NMDA receptor (Q00961 20-1237, other chains not shown): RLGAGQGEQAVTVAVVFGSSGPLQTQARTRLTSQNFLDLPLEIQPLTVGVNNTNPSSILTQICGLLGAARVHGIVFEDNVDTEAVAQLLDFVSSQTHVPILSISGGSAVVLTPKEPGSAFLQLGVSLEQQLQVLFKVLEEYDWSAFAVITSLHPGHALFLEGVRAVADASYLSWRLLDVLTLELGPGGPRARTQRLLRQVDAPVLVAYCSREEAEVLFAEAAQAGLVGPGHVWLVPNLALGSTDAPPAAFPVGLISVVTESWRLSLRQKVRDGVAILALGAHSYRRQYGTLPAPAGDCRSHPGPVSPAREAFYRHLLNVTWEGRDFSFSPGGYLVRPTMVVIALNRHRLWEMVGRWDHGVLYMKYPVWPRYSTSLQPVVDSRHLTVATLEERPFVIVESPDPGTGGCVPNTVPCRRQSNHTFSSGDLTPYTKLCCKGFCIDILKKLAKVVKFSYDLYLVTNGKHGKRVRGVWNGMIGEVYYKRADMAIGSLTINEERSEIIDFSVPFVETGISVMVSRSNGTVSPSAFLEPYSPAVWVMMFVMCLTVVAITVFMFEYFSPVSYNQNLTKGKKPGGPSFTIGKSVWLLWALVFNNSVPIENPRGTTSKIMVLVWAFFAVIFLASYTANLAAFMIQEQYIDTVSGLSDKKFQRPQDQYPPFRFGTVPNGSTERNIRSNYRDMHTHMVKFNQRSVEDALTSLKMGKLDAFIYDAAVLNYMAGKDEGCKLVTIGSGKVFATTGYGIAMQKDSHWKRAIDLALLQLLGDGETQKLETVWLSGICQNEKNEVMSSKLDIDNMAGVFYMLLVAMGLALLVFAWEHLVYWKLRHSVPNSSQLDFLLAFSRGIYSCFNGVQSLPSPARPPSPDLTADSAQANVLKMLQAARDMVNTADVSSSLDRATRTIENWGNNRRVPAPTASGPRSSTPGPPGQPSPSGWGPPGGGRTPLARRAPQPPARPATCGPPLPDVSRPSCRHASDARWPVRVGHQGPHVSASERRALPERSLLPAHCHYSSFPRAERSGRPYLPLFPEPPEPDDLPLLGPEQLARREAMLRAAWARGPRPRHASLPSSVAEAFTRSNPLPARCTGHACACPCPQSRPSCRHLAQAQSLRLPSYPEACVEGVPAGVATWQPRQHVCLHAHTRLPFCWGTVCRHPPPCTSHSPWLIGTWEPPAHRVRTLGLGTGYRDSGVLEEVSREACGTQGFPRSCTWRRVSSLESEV
From the text: as §1, §2, §3, §4, §5, §6, §7, §8

## O=C(CCCN1CCc2c([nH]c3ccccc23)C1)c1ccc(F)cc1
other
  melting point: 188 to 190 °C

## Br.c1ccc(CC2CCCN(CCCOc3ccccc3)C2)cc1 (centres unmarked)
other
  melting point: 148 to 149 °C

## Br.c1ccc(CC2CCCN(CCOc3ccccc3)C2)cc1 (centres unmarked)
other
  melting point: 93 to 94 °C

## Br.c1ccc(CCCCN2CCCC(Cc3ccccc3)C2)cc1 (centres unmarked)
other
  melting point: 105 to 107 °C

## Br.c1ccc(CCN2CCCC(Cc3ccccc3)C2)cc1 (centres unmarked)
other
  melting point: 137 to 142 °C

## Br.FC(F)(F)c1cccc(CCN2CCCC(Cc3ccccc3)C2)c1 (centres unmarked)
other
  melting point: 152 to 154 °C

## Br.Clc1ccc(CCN2CCCC(Cc3ccccc3)C2)cc1 (centres unmarked)
other
  melting point: 143 to 145 °C

## Br.COc1ccc(CCN2CCCC(Cc3ccccc3)C2)cc1 (centres unmarked)
other
  melting point: 74 to 78 °C

## Cl.O=C(c1ccc(F)cc1)C1CCN(CCOc2ccc(F)cc2)CC1
other
  melting point: 138 to 141 °C

## OCCCN1CCC(Cc2ccccc2)CC1 (as salt: hydrobromid) [Ex. 83, 4-Benzyl-1-(3-hydroxypropyl)piperidine hydrobromide]
other
  melting point: 122 to 124 °C

## OCCCCN1CCC(Cc2ccccc2)CC1 (as salt: hydrobromid) [Ex. 86, 4-Benzyl-1-(4-hydroxybutyl)piperidine hydrobromide]
other
  melting point: 129 to 130 °C

## OCCCN1CCC(Cc2ccc(Cl)cc2)CC1 (as salt: hydrobromid) [Ex. 89, 4-(4-Chlorobenzyl)-1-(3-hydroxypropyl) piperidine hydrobromide]
other
  melting point: 139.5 to 140 °C

## OCCCN1CCC(Cc2ccc(F)cc2)CC1 (as salt: hydrobromid) [Ex. 90, 4-(4-Fluorobenzyl)-1-(3-hydroxypropyl) piperidine hydrobromide]
other
  melting point: 108 to 110 °C

## COc1ccc(CC2CCN(CCCO)CC2)cc1 (as salt: hydrobromid) [Ex. 93, 1-(3-Hydroxypropyl)-4-(4-methoxybenzyl) piperidine hydrobromide]
other
  melting point: 129 to 131 °C

## COc1ccc(C(=O)C2CCN(CCCO)CC2)cc1 (as salt: hydrobromid) [Example 78, 1-(3-Hydroxypropyl)-4-(4-methoxybenzoyl)piperidine]
other
  melting point: 148 to 151 °C

## OC1(Cc2ccccc2)CCN(CCCc2ccccc2)CC1 (as salt: hydrochloride) [Ex. 16, 4-Benzyl-4-hydroxy-1-(3-phenylpropyl)piperidine]
other
  melting point: 156 to 157 °C

## c1ccc(OCCN2CCc3ccccc3C2)cc1 (as salt: hydrochloride) [Ex. 18, N-(2-Phenoxyethyl)-1,2,3,4-tetrahydroisoquinoline]
other
  melting point: 181 to 182 °C

## c1ccc(OCCCN2CCc3ccccc3C2)cc1 (as salt: hydrochloride) [Ex. 19, N-(3-Phenoxypropyl)-1,2,3,4-tetrahydroisoquinoline]
other
  melting point: 194 to 195 °C

## O=C(c1ccccc1)C1CCN(CCOc2ccccc2)CC1 (as salt: hydrochloride) [Ex. 27, 4-Benzoyl-1-(2-phenoxyethyl)piperidine]
other
  melting point: 161 to 162 °C

## CC(O)CCN1CCC(Cc2ccc(F)cc2)CC1 (centres unmarked) (as salt: hydrochloride) [Ex. 91, 4-(4-Fluorobenzyl)-1-(3-hydroxybutyl) piperidine hydrochloride]
other
  melting point: 99 to 103 °C

## C[C@@H](CO)CN1CCC(Cc2ccc(F)cc2)CC1 (as salt: hydrochloride) [Ex. 92, (R)-4-(4-Fluorobenzyl)-1-(3-hydroxy-2-methylpropyl) piperidine hydrochloride]
other
  melting point: 128 to 130 °C

## CC(O)CCN1CCC(Cc2ccc(N)cc2)CC1 (centres unmarked) (as salt: hydrochloride) [Ex. 105, 4-(4-aminobenzyl)-1-(3-hydroxy-butyl) piperidine hydrochloride]
other
  melting point: 155 to 160 °C

## O=c1[nH]c2ccc(OCCCN3CCc4ccccc4C3)cc2[nH]1 (as salt: hydrochloride) [Ex. 108, N-(3-(2-oxobenzimidazol-5-oxy)propyl)-1,2,3,4-tetrahydroisoquinoline]
other
  melting point: 210 to 215 °C (dec.)

## Clc1ccc(CC2CCN(C3CCc4ccccc4C3)CC2)cc1 (centres unmarked) (as salt: hydrochloride) [Example 98, 4-(4-Chlorobenzyl)-1-(tetralin-2-yl)piperidine hydrochloride]
other
  melting point: 243 to 245 °C (dec.)

## CCOC(=O)CCCN1CCC(Cc2ccccc2)CC1 [Ex. 41, 4-(4-Benzylpiperidinyl) butyric acid ethyl ester hydrobromide salt]
[1]
  IC50: > 300 µM
[2]
  IC50: > 300 µM
[3]
  IC50: > 300 µM

## NCCCN1CCC(Cc2ccccc2)CC1 [Ex. 47, 4-Benzyl-1-(3-aminopropyl) piperidine]
[1]
  IC50: 270 µM
[2]
  IC50: 40 µM
[3]
  IC50: > 300 µM

## OCCCCN1CCC(Cc2ccccc2)CC1 [Ex. 86, 4-Benzyl-1-(4-hydroxybutyl)piperidine hydrobromide]
[1]
  IC50: > 300 µM
[2]
  IC50: 12 µM
[3]
  IC50: > 300 µM

## OCCCN1CCC(O)(Cc2ccccc2)CC1 [Ex. 87, 4-Benzyl-4-hydroxy-1-(3-hydroxypropyl)piperidine]
[1]
  IC50: > 300 µM
[2]
  IC50: 7 µM
[3]
  IC50: > 300 µM

## OCC1CC2CC(Cc3ccccc3)CCN2C1 (centres unmarked) [Ex. 88, 7-Benzyl-1,2,3,5,6,7,8,9-octahydro-2-(hydroxymethyl)indolizine]
[1]
  IC50: > 300 µM
[2]
  IC50: 5 µM
[3]
  IC50: > 300 µM

## OCCCN1CCC(Cc2ccc(F)cc2)CC1 [Ex. 90, 4-(4-Fluorobenzyl)-1-(3-hydroxypropyl) piperidine hydrobromide]
[1]
  IC50: > 300 µM
[2]
  IC50: 1.3 µM
[3]
  IC50: > 300 µM

## C[C@@H](CO)CN1CCC(Cc2ccc(F)cc2)CC1 [Ex. 92, (R)-4-(4-Fluorobenzyl)-1-(3-hydroxy-2-methylpropyl) piperidine hydrochloride]
[1]
  IC50: > 300 µM
[2]
  IC50: 8 µM
[3]
  IC50: > 300 µM

## CC(O)CCN1CCC(Cc2ccc(N)cc2)CC1 (centres unmarked) [Ex. 105, 4-(4-aminobenzyl)-1-(3-hydroxy-butyl) piperidine hydrochloride]
[1]
  IC50: 120 µM
[2]
  IC50: 17 µM
[3]
  IC50: > 300 µM

## O=c1[nH]c2ccc(OCCCN3CCc4ccccc4C3)cc2[nH]1 [Ex. 108, N-(3-(2-oxobenzimidazol-5-oxy)propyl)-1,2,3,4-tetrahydroisoquinoline]
[1]
  IC50: 24 µM
[2]
  IC50: 7.5 µM
[3]
  IC50: > 300 µM

## O=c1[nH]c2ccc(OCCN3CCc4ccccc4C3)cc2[nH]1 [Ex. 109, N-(2-(2-oxobenzimidazol-5-oxy)ethyl)-1,2,3,4-tetrahydroisoquinoline]
[1]
  IC50: 190 µM
[2]
  IC50: 140 µM
[3]
  IC50: > 300 µM

## O=C(c1ccc(F)cc1)C1CCN(CCCO)CC1 [Example 77, 4-(p-fluorobenzoyl)-1-(3-hydroxypropyl)piperidine]
other
  melting point: 106 to 108 °C

## O=C(c1ccccc1O)C1CCN(CCCO)CC1 [Example 79, 4-(2-Hydroxybenzoyl)-1-(3-hydroxypropyl)piperidine]
other
  melting point: 77 to 80 °C
